Results on one molecule are retold here after paper PMC8820799, “Angiogenesis and anti-leukaemia activity of novel indole derivatives as potent colchicine binding site inhibitors” (Journal of Enzyme Inhibition and Medicinal Chemistry, 2022).

Assay [1] concerns the target T1, Tubulin isolated from porcine brain tissue (Sus scrofa, UniProt P02550+P02554).
T1 construct: purchased Cytoskeleton (Denver, CO), via Beyotime, China; host or cells: porcine brain tissue
The assay is described as follows: Tubulin polymerisation assay. The conditions noted are these: triplicate, mean ± SD; read-out: Tubulin (tubulin inhibitory polymerisation IC50). It is filed as biochemical. As for the experimental part:
Tubulin polymerisation was determined with the tubulin polymerisation assay kit (Cytoskeleton, Denver, CO which was purchased from Cytoskeleton, Beyotime, China. Tubulin isolated from porcine brain tissue was used in this commercial kit.) It is based on the principal that light is scattered by microtubules to an extent that is proportional to the concentration of the microtubule polymer. Compounds that interact with tubulin will alter the polymerisation of tubulin, and this can be detected using a spectrophotometer. Tubulin polymerisation dynamics was monitored through measuring the change of absorbance at 340 nm every 2 min for 30 min at 37 °C on a spectrophotometer.

The subject of the next assay is MV4-11. The assay is described as follows: CCK-8 assay, MV4-11. It counts as cell-based. The conditions noted are these: Homo sapiens, leukaemia, AML, CCK-8, 72 h. As for the experimental part: (§1) Cells were seeded in 96-well plates at a density of 8 × 10^3 per well and exposed to different concentrations of compounds for 72 h. Subsequently, 10 µL CCK8 solution was added to each well and co-incubated for another 3–4 h at 37 °C. The absorbance was determined at 450 nm. Data was calculated with GraphPad Prism5 software.[32]
On the technique in general: Tetrazolium dyes change colour on reduction, which living cells bring about.

The test system of the next assay is HL60. The assay is described as follows: CCK-8 assay, HL60. It counts as cell-based. The settings on record: Homo sapiens, HL-60; leukaemia, APL; CCK-8, 72 h. As for the experimental part:
as §1

For assay [2], the system named is K562 cells. The assay is described as follows: Immunofluorescence staining of microtubule network. The settings on record: K562, 0.1 uM and 0.3 uM; Figure 4F. It counts as cell-based.
The test system of assay [3] is HUVEC. The assay is described as follows: Transwell cell invasion experiment. It counts as cell-based, human. The conditions noted are these: 0.1 µM to 10 µM, concentration-dependent. As for the experimental part:
The upper surface of Transwell membrane was precoated with 40 µL Matrigel gel and incubated for 45 min at 37 °C for gelling. Then, cells were trypsinized and seeded at 6х10^4 per upper chamber, and cultured in 1% foetal bovine serum medium containing different concentrations of compounds. The chamber was then placed in a 24-well plate to which 10% FBS had been added. After 48 h incubation at 37 °C, both chambers were washed with PBS three times, and then fixed with 4% paraformaldehyde for 15 min, followed by staining with crystal violet. The non-invasive cells on the upper surface membrane were wiped with cotton swabs. The image of the cells on the bottom face was recorded and quantified under an inverted microscope. The results were the means calculated from three replicates of each experiment.[37]

In assay [4] the test system is HUVEC. Description: Tube formation assay. It counts as cell-based, human. The settings on record: 0.1, 1 and 10 µM. As for the experimental part:
Matrigel matrix (Basement Membrane Matrix, BD Biosciences) was thawed at 4 °C overnight. At this point, 50 µL of the matrix solution was added to each well of a 96-well plate. After gelling at 37 °C for 30 min, the matrix was overlaid with 200 µL of medium containing 1 × 10^5 HUVECs per well, which was incubated for 6 h to allow capillary tubes to form. Different concentrations of compounds were added in the cultures and incubated for 6 h to monitor the morphological changes of cells and tubes. The disappearance of existing vasculature was photographed at 10х magnification. Values were expressed as percent change form control cultures grown with complete medium.[36] Standard dimensional parameters (percent area covered by HUVECs and total length of the HUVEC network per field) were noted, and standard topological parameters (number of meshes and branching points per field) were estimated.

In assay [5] the test system is K562 cells. The assay is described as follows: Western blot of apoptosis-related proteins. The settings on record: K562, 48 h. It is filed as cell-based. As for the experimental part:
Exponentially growing K562 cells in were seeded in […] at a density of 6х10^5/dish and incubated overnight. The cultured cells were treated with indicated concentrations of 29e for 48 h. After the cells were washed with cold PBS, the supernatant was removed. Cells were scraped off the tissue culture dish, and then lysed by 100 µl ice-cold RIPA lysis buffer for 20 min with occasional agitation. The supernatant was collected by centrifuging at 12,000 g for 10 min at 4 °C. The protein concentration in the supernatant was determined by using a BCA protein assay kit. After BCA analysis to quantify proteins, samples were prepared in SDS-PAGE loading buffer, then boiled for 10 min at 100 °C. Western blot analyses were conducted after separation by SDS-PAGE electrophoresis and transfer to nitrocellulose filter (NC) membranes. Immunoblotting was performed according to the antibody manufacturers’ recommendations. Antibodies: caspase-3, caspase-9, PARP and β-actin.
Background: A western blot detects proteins with antibodies after separation by electrophoresis.

Molecules are shown by their SMILES.

T1 sequence (P02554 whole entry): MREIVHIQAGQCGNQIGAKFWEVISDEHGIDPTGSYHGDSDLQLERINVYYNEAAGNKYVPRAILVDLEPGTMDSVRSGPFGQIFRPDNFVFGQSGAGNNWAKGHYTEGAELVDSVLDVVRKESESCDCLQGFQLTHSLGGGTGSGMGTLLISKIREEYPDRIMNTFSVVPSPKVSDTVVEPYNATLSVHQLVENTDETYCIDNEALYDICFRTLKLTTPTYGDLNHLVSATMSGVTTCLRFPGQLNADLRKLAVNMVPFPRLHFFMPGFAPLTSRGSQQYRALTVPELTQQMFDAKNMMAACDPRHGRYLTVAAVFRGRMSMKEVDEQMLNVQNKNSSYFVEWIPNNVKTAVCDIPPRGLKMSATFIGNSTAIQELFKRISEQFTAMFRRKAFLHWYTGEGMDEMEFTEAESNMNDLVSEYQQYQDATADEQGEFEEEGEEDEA
T1 sequence (P02550 whole entry): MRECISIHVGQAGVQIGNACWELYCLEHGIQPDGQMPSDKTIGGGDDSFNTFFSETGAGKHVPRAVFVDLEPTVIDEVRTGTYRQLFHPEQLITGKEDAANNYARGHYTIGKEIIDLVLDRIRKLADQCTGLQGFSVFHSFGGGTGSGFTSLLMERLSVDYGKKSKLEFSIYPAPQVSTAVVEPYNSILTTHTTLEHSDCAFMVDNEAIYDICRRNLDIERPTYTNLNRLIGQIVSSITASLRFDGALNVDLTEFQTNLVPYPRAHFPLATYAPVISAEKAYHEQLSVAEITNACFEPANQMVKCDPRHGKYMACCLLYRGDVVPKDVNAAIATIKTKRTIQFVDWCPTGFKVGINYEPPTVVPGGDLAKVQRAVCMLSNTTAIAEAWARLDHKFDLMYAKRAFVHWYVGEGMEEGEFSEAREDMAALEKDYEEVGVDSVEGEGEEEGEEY

With `COc1cc(C(=O)/C=C/c2cn(S(=O)(=O)c3ccccc3)c3ccccc23)cc(OC)c1OC` [Compound 29e, (E)-3–(1-(Phenylsulfonyl)-1H-indol-3-yl)-1–(3,4,5-trimethoxyphenyl)prop-2-en-1-one], the IC50 in assay [1] turned out to be 4800 ± 700 nM; in the assay with MV4-11 it was 250 ± 20 nM; in the assay with HL60, 180 ± 2 nM. Further, in the assay on K562 cells [2], the “Effect on cellular microtubule network” value was “conspicuous disorder for the microtubule network”. Further, the “HUVEC invasion (Transwell)” value in the assay on HUVEC [3] is recorded as “the number of HUVEC invasion decreased”. In addition, the HUVEC tubule-like networks entry in the assay on HUVEC [4] was “sharply reduced the width and length”. Further, in the assay on K562 cells [5], the “Expression of caspase-3, caspase-9 and PARP” value was “decreased efficiently”. Besides, in the assay on K562 cells [5], the “Expression of cleaved caspase-3 and PARP” value was “up-regulation of cleaved caspase-3 and PARP”.

The IC50 is the concentration that inhibits the measured activity by half.
